What was measured:
[1] = system: Jurkat; test: Cannabinoid-induced apoptosis in vitro (TUNEL); type: cell-based, human; details: 5 μM JWH-015, serum-free medium, 24 hours
Protocol: (§1) The cells were washed twice with PBS. […] Five thousand cells were analyzed per sample.

[2] = system: Molt-4; test: Cannabinoid-induced apoptosis in vitro (TUNEL); type: cell-based, human; parameters: induction of apoptosis (TUNEL): dose or concentration left out as unconfirmed
Protocol: as §1

[3] = system: Jurkat; test: Tumor-cell viability in vitro, trypan blue dye exclusion; type: cell-based, human
Protocol: (§2) Measurement of the effect of cannabinoid receptor aponistson tumor-cell viability in vitro: Tumor cells were adjusted to 1×10^6 cells/mL in medium containing 5% FCS or serum-free medium. The cells (1×10^6) were cultured in 24-well plates in 2 mL medium in the presence or absence of various concentrations of cannabinoid receptor agonists for 2 to 24 hours. Finally, the cells were harvested and washed twice in PBS, and the viable cell count was determined by trypan blue dye exclusion.

[4] = system: Molt-4; test: as above; type: cell-based, human; details: Molt-4, serum-free medium, 24 hours
Protocol: as §2

[5] = cited from earlier work
[6] = system: EL-4 tumor cells; test: Tumor-cell viability in vitro, trypan blue dye exclusion; type: cell-based, murine; parameters: time required to induce tumor-cell killing: dose or concentration left out as unconfirmed
Protocol: as §2

[7] = system: LSA tumor cells; test: as above; type: cell-based, murine; details: medium with 5% FCS, 24 hours
Protocol: as §2

[8] = system: P815 tumor cells; test: as above; type: cell-based, murine; details: P815, medium with 5% FCS, 24 hours
Protocol: as §2

[9] = system: EL-4 tumor cells; test: Cannabinoid-induced apoptosis in vitro (TUNEL or annexin V/PI); type: cell-based, murine; details: for induction of apoptosis (annexin/PI) compared with controls: 3 μM
Protocol: as §1

[10] = system: LSA tumor cells; test: Cannabinoid-induced apoptosis in vitro (TUNEL); type: cell-based, murine; details: 5% FCS, 24 hours, 20 μM THC (printed 201M)
Protocol: as §1

[11] = system: P815 tumor cells; test: Cannabinoid-induced apoptosis in vitro (TUNEL); type: cell-based, murine; details: P815, 5% FCS, 24 hours, 20 μM THC (printed 201M)
Protocol: as §1

[12] = system: EL-4 tumor cells; test: Tumor-cell viability and induction of apoptosis in vivo in EL-4 tumor-bearing mice; parameters: species or system C57BL/6 mice
Protocol: Measurement of tumor-cell viability and induction of apoptosis in vivo: Groups of 5 C57BL/6 mice were injected intraperitoneally (IP) with 1×10^6 EL-4 tumor cells suspended in 0.2 mL PBS. The control mice received PBS alone. Ten days later, the mice were injected with various concentrations of THC (0, 1, 3, or 5 mg/kg […]). The mice were killed 24 hours later and the EL-4 tumor cells were harvested from the peritoneal cavity by injecting 5.0 mL PBS, followed by aspiration of the peritoneal fluid from the cavity. The contaminating red blood cells were removed with red blood lysing solution (Sigma), and the tumor cells were washed twice with PBS. The number of viable cells was determined by trypan blue dye exclusion, and apoptosis was determined using the TUNEL assay. The presence of tumor cells in the peritoneal cavity was confirmed by the ability of the cells to grow in vitro and by the phenotype (Thyl-, CD4-, CD8-).

[13] = system: EL-4 tumor cells; test: Survival of EL-4-challenged mice; type: in vivo, C57BL/6 mice; details: 5 mg/kg IP daily for 14 days
Protocol: Effect of THC on survival of EL-4-challenged mice: Groups of 8 C57BL/6 mice were injected […] with 1×10^6 EL-4 tumor cells in a volume of 100 μL PBS. One day following tumor injection, the mice received daily IP injections for 14 days with 5 mg/kg THC in a volume of 500 μL PBS. Control mice received injections with the vehicle control. The mice were observed daily for signs of morbidity and were euthanized. Mice that survived for more than 60 days were rechallenged with live EL-4 cells (1×10^6) and tested for their ability to reject tumor and survive.

[14] = system: Sup-T1; test: Tumor-cell viability in vitro, trypan blue dye exclusion; type: cell-based, human; details: Sup-T1, 5 μM THC, 4 hours
Protocol: as §2

[15] = system: primary ALL cells; test: Viability of primary ALL cells in vitro, trypan blue dye exclusion; type: cell-based, human; details: ALL no. 1 and ALL no. 2, serum-free medium, 2 hours
Excerpt: Primary leukemic cells: Peripheral blood samples were obtained from 2 patients diagnosed with ALL. The samples were referred to as ALL no. 1 and ALL no. 2. ALL no. 1 was obtained from a patient newly diagnosed with common acute lymphoblastic leukemia antigen (CALLA) (CD10)-positive non-B, non-T ALL. ALL no. 2 was obtained from a patient newly diagnosed with terminal deoxynucleotidyl transferase (TdT)-positive T-cell ALL. Informed consent was obtained following institutional guidelines and approval was obtained from the institutional review board of Virginia Commonwealth University. Consent was provided according to the Declaration of Helsinki.
The content of the lymphoblasts was greater than 70% as determined by flow cytometric analysis. Mononuclear cells were isolated by Ficoll-Paque density gradient centrifugation. In this study, the samples were cryopreserved and stored in liquid nitrogen before use. Viability after thawing was determined by trypan blue dye exclusion and was greater than 90%.
Measurement of the effect of cannabinoid receptor aponistson tumor-cell viability in vitro: Tumor cells were adjusted to 1×10^6 cells/mL in medium containing 5% FCS or serum-free medium. […] Finally, the cells were harvested and washed twice in PBS, and the viable cell count was determined by trypan blue dye exclusion.

[16] = system: tumor cells; test: Dose of THC that induced apoptosis in vitro, with and without serum; type: cell-based
Protocol: as §1

[17] = rats injected with 50 mg/kg, within 10 hours of administration; cited from earlier work
[18] = system: thymus and spleen; test: Cellularity of thymus and spleen after administration to C57BL/6 mice; details: resulted from apoptosis in immune cells
[19] = biological target: CB2 receptors (Homo sapiens, UniProt P34972); details: human tumor cells, pretreatment with the CB2 antagonist
Protocol: Next, the cells were harvested, washed twice in PBS, and analyzed for the induction of apoptosis using either the terminal deoxynucleotidyl transferase-mediated end labeling (TUNEL) method or annexin V/propidium iodide (PI) method, as described elsewhere (references 14,15 incorporated herein by reference). To detect apoptosis using the TUNEL method, we washed the cells twice with PBS and fixed them with 4% p-formaldehyde for 30 minutes at room temperature. The cells were next washed with PBS, permeabilized on ice for 2 minutes, and incubated with fluorescein isothiocyanate-dUTP and TdT (Boehringer Mannheim, Indianapolis, Ind.) for 1 hour at 37° C. and 5% CO2. To detect apoptosis using the annexin V/PI method, we washed the cells twice with PBS and stained them with annexin V and PI for 20 minutes at room temperature. The cells were washed twice with PBS. The levels of apoptosis in both the TUNEL and annexin/PI assays were determined by measuring the fluorescence of the cells by flow cytometric analysis. Five thousand cells were analyzed per sample.

[20] = EL-4, serum-free medium, 4 hours
[21] = EL-4, serum-free medium, 5 μM, 4 hours
[22] = 5 mg/kg IP on day 10, harvest 24 hours later

Sequence of CB2 receptors (P34972 whole entry): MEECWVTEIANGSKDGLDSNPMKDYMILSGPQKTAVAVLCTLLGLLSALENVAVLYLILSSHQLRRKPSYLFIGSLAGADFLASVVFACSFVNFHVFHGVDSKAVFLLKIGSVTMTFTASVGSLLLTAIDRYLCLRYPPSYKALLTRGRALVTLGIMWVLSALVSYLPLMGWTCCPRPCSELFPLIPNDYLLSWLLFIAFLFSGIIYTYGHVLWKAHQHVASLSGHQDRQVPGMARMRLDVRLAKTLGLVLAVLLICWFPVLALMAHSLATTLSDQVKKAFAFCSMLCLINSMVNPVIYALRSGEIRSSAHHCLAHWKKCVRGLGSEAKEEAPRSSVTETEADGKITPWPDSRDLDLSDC

CCCn1c(C)c(C(=O)c2cccc3ccccc23)c2ccccc21 [JWH-015, (2-Methyl-1-propyl-1H-indol-3-yl)-1-naphthalenylmethanone]
induction of apoptosis (TUNEL) [1]: significant induction of apoptosis
induction of apoptosis (TUNEL) ([2]; Molt-4, JWH-015, serum-free medium, 24 hours): significant induction of apoptosis
concentration leading to a significant decrease in the number of viable tumor cells ([3]; serum-free medium, 24 hours): ≥ 5 µM
concentration leading to a significant decrease in the number of viable tumor cells [4]: ≥ 5 µM
soluble to, in DMSO ([5]; DMSO): 10 mM
soluble to, in ethanol ([5]; ethanol): 25 mM

CCCCCc1cc(O)c2c(c1)OC(C)(C)[C@@H]1CCC(C)=C[C@@H]21 [THC, Delta-9-tetrahydrocannabinol]
concentration leading to a significant reduction in the number of viable cells ([6]; EL-4, medium with 5% FCS, 24 hours): ≥ 10 µM
time required to induce tumor-cell killing ([6]; EL-4, serum-free medium): 4 h
concentration leading to a significant decrease in tumor-cell viability [6, 20]: 5 µM
concentration causing a significant decrease in tumor-cell viability ([6]; EL-4, serum-free medium, 12 hours): 3 µM
concentration leading to a significant reduction in the number of viable cells [7]: ≥ 10 µM
concentration leading to a significant reduction in the number of viable cells [8]: ≥ 10 µM
induction of apoptosis (TUNEL) ([9]; EL-4, 5% FCS, 24 hours, 20 μM THC (printed 201M)): induced significant apoptosis
induction of apoptosis (annexin/PI) compared with controls [9, 20]: significant increase in apoptosis
induction of apoptosis (TUNEL and annexin/PI) [9, 21]: increase in the induction of apoptosis
induction of apoptosis (TUNEL) [10]: induced significant apoptosis
induction of apoptosis (TUNEL) [11]: induced significant apoptosis
viable tumor-cell number in the peritoneal cavity ([12]; 1 mg/kg IP on day 10, harvest 24 hours later): failed to cause a decrease in cellularity
viable tumor-cell number in the peritoneal cavity ([12]; 3 mg/kg IP on day 10, harvest 24 hours later): effective
proportion of tumor cells showing apoptosis (TUNEL) [12, 22]: 77.3%
viable tumor-cell number in the peritoneal cavity [12, 22]: effective
survival of EL-4 tumor-bearing mice [13]: significant increase in survival
mice that survived the tumor challenge / were cured ([13]; listed as TEC): approximately 25%
number of viable tumor cells ([3]; 5 μM THC, 4 hours): dramatic reduction in the number of viable tumor cells
number of viable tumor cells [14]: dramatic reduction in the number of viable tumor cells
concentration resulting in significant reduction in viability [15]: ≥ 5 µM
dose that induced apoptosis in vitro ([16]; serum-containing medium): ≥ 10 µM
dose that induced apoptosis in vitro ([16]; serum-free medium): ≥ 3 µM
THC in the serum [17]: 10 µM
cellularity of the thymus and spleen [18]: marked decrease in the cellularity of the thymus and spleen

CCCCC/C=C\C/C=C\C/C=C\C/C=C\CCCC(=O)NCCO [anandamide]
induction of apoptosis (TUNEL) [9, 21]: slight increase in apoptosis
induction of apoptosis (TUNEL) ([9]; EL-4, serum-free medium, 10 μM, 4 hours): significant levels of apoptosis
concentration leading to significant levels of apoptosis (TUNEL) ([2]; Molt-4, serum-free medium, 4 hours): ≥ 20 µM

SR144528
effect of pretreatment on THC-induced apoptosis [19]: partially reversed

Cc1c(C(=O)c2cccc3ccccc23)c2cccc3c2n1[C@H](CN1CCOCC1)CO3 [WIN55212]
induction of apoptosis (annexin/PI) compared with controls [9, 20]: no significant effect

CCCCCCC(C)(C)c1cc(O)c2c(c1)OC(C)(C)[C@@H]1CC=C(CO)C[C@@H]21 [HU-210]
induction of apoptosis (annexin/PI) compared with controls [9, 20]: significant increase in apoptosis

Source: patent publication US20040259936A1, “Treatment of neoplasia” (priority 2001, published 2004)
